Test results reported in patent US10758536B2, “Method for treating shingles with N-methanocarbathymidine (N-MCT)” (priority 2015, dated 2020).
Converted amounts (≈) assume the structure as drawn. “Also recorded” adds a separate entry of the source.

Assays:
[1] = tested on: VZV; experiment: EC50 determination in HFFs, VZV-BAC-Luc bioluminescence; format: cell-based, varicella-zoster virus
Protocol: Human foreskin fibroblasts (HFFs) (CCD-1137Sk; American Type Culture Collection), used prior to passage 20 were grown in Eagle minimum essential medium with Earle's salts and L-glutamine (HyClone Laboratories), supplemented with 10% heat-inactivated fetal bovine serum (Benchmark FBS; Gemini Bio Products), penicillin-streptomycin (5000 IU/mL), amphotericin B (250 µg/mL), and nonessential amino acids (all Mediatech). VZV-BAC-Luc (Zhang et al., 2007), derived from the Parental Oka (POka, Accession number: AB097933) strain was propagated in HFFs. To prepare the virus for inoculation, VZV-infected HFFs were trypsinized, then washed and resuspended in TCM, and used immediately for direct injection. Each tissue was injected twice with 30 μL of the cell suspension using a 1 cc syringe fitted with a 27-gauge needle attached to a volumetric stepper (Tridak). […]
The first question we addressed was whether N-MCT was effective against VZV in cultured cells. A standard EC50 evaluation was performed using the VZV-BAC-Luc strain and virus yield was measured by bioluminescence. […]
Cells were treated for 48 hpi (hour post infection) and the medium containing the drug was changed after 24 h. VZV spread was measured by bioluminescence imaging at 48 hpi and expressed as Total Flux (photons/sec/cm^2/steradian). […]

[2] = tested on: VZV; experiment: Skin organ culture assay, drug in medium; format: cell-based, varicella-zoster virus
Protocol: Human foreskin fibroblasts (HFFs) (CCD-1137Sk; American Type Culture Collection), used prior to passage 20 were grown in Eagle minimum essential medium with Earle's salts and L-glutamine (HyClone Laboratories), supplemented with 10% heat-inactivated fetal bovine serum (Benchmark FBS; Gemini Bio Products), penicillin-streptomycin (5000 IU/mL), amphotericin B (250 µg/mL), and nonessential amino acids (all Mediatech). VZV-BAC-Luc (Zhang et al., 2007), derived from the Parental Oka (POka, Accession number: AB097933) strain was propagated in HFFs. To prepare the virus for inoculation, VZV-infected HFFs were trypsinized, then washed and resuspended in TCM, and used immediately for direct injection. Each tissue was injected twice with 30 μL of the cell suspension using a 1 cc syringe fitted with a 27-gauge needle attached to a volumetric stepper (Tridak). The needle was lightly dragged across the tissue approximately 5 times to scarify the surface to increase infection. Tissues were incubated at 37° C. for 3 h to allow the virus to adhere, and then placed individually on NetWells that had contact with 1.0 mL of tissue culture medium. The cell-associated VZV inoculum was titered on MeWo cells (Taylor and Moffat, 2005) and was typically 1.5×10^6 pfu/mL, which is approximately 9×10^4 pfu/tissue.
In skin organ culture, higher concentrations of N-MCT were needed to reduce VZV spread; virus yield was reduced ˜100-fold when [N-MCT] was greater than 10 μg/mL.

[3] = tested on: VZV; experiment: SCID-Hu mouse model of VZV replication, oral dose range; format: in vivo, varicella-zoster virus
Protocol: SCID-hu mice with human skin xenografts were infected intradermally with VZV and treated orally twice daily with vehicle, PFA (positive control), or N-MCT at 5, 10, 20, 25, 50, or 100 mg/kg/day. Virus spread was measured daily by in vivo bioluminescence imaging (IVIS). […] The results were analyzed for statistical significance by ANOVA and Dunnett's post hoc test of multiple comparisons (GraphPad Prism).

[4] = tested on: VZV; experiment: Skin organ culture topical Assay 1: dose dependence (carbopol gel); format: cell-based, varicella-zoster virus
Protocol: Place 36 mL deionized sterile water into small beaker with stir bar. Slowly waft 900 mg of carbopol (980 NF, Lot # CCONLCC013, Lubrizol Corp) into water, avoiding clumps. Add equal volume N-MCT in 20% hydroxypropyl-β-cyclodextrin (Sigma) at 2× to reach the desired concentration. Add 2 drops NaOH (18% solution) to attain a pH near 5.0. Store at 4° C. The 0.5% cidofovir gel was made in a similar manner except that cidofovir was dissolved in water. The DMSO vehicle was prepared by adding a 2% DMSO solution in water to the carbopol suspension at a 1:1 ratio. Hydroxypropyl-β-cyclodextrin (HPBCD) was prepared by mixing 5.0 g with 20 mL sterile water. Stock solution of N-MCT was prepared by dissolving 90 mg N-MCT in 9 mL 20% HPBCD and sonicating for 1 min.
A skin organ culture model was used to evaluate N-MCT as a topical treatment for VZV. Human skin explants were inoculated with VZV by scarification and treated daily from 1-4 days post infection with N-MCT (0.05, 0.5, or 5%) or cidofovir (0.5%, positive control) in a carbopol gel.
Human fetal skin was purchased from ABR and delivered by overnight courier on wet ice. The tissue was cleaned, disinfected in betadine and 70% ethanol, then cut into pieces approximately 1-cm^2. Each piece was inoculated with VZV-BAC-Luc strain that expresses firefly luciferase. Approximately 3 hours after inoculation, the pieces of skin were placed in NetWells above tissue culture medium and incubated overnight. The next day (Day 1) each piece of skin was soaked in D-luciferin for 45 min, and then scanned in the IVIS-50 instrument to measure Total Flux, which is a correlate of VZV pfu. The drug treatment began on Day 1 or later by spreading an aqueous gel (carbopol) containing N-MCT at concentrations of 0.05, 0.5, or 5% (see Assay 1 in Table 4 below). One group of skin was treated with cidofovir ([…] in carbopol gel) for a positive control. Each group contained 4-6 pieces of skin. The drug was applied daily until Day 5 (or other intervals), and then the skin pieces were scanned by IVIS to determine virus yield. […] The results were analyzed for statistical significance by ANOVA and Dunnett's post hoc test of multiple comparisons (GraphPad Prism).

Q: How did the EC50 ([1]; Human alphaherpesvirus 3, Fibroblast, human foreskin fibroblasts, VZV-BAC-Luc, bioluminescence at 48 hpi) turn out when `Cc1cn([C@]23C[C@H](O)[C@@H](CO)[C@@H]2C3)c(=O)[nH]c1=O` [N-MCT, N-methanocarbathymidine] was run?
A: 0.06 µg/mL (≈ 0.238 µM)

Q: And the EC50 ([1]; Human alphaherpesvirus 3, cultured cells)?
A: 0.06 µg/mL (≈ 0.238 µM)

Q: And the “VZV growth in skin organ culture” value ([2]; FIG. 2)?
A: prevents VZV growth

Q: And the virus yield reduction ([2]; [N-MCT] greater than 10 μg/mL, skin organ culture)?
A: ~100 fold

Q: And the “concentrations at which N-MCT prevents VZV spread in human skin explants” value ([2]; human skin explants, drug in medium)?
A: > 10 µg/mL

Q: And the “VZV spread in mouse model, effectiveness” value ([3]; 5-100 mg/kg/day p.o. BID)?
A: prevents VZV spread; also recorded: effective

Q: What about the “VZV yield and growth rates compared to vehicle” value ([3]; all doses, N-MCT 5-100 mg/kg/day BID, p<0.0001, ANOVA and Dunnett) of the same compound?
A: significantly reduced

Q: What about the “doses more effective than control antiviral compounds (PAA, PFA, cidofovir)” value ([3]; mouse model of virus replication) of the same compound?
A: > 10 mg/kg/day

Q: And the optimal dose ([3]; p.o. BID, SCID-Hu mice)?
A: approximately 20 mg/kg/day

Q: What about the “VZV yield compared to vehicle” value ([4]; N-MCT 0.05, 0.5, 5% or cidofovir in carbopol gel, daily, p<0.0004) of the same compound?
A: significantly reduced

Q: What about the “VZV replication in skin explants, topical gel” value ([4]; N-MCT 0.05-5%, cidofovir 0.5% in carbopol gel) of the same compound?
A: prevented VZV replication

Q: And the “reduction of virus yield compared to the vehicle group” value ([4]; all concentrations, topical carbopol gel, p=0.0004)?
A: approximately 100 fold

Q: What about the “effective topical concentration, as low as” value ([4]; carbopol gel with 10% hydroxypropyl-β-cyclodextrin, human skin explants) of the same compound?
A: ≥ 0.05%
